Measurements taken from EP4603105A1, “PHARMACEUTICAL COMPOSITION CONTAINING CYCLIC COMPOUND HAVING SELECTIVE KRAS INHIBITORY EFFECT AGAINST HRAS AND NRAS” (CHUGAI SEIYAKU KABUSHIKI KAISHA, priority 2022, dated 2024).
*1 amine or outer side, *2 acyl side, *3 side chain or, on linkers, in order; H or OH if unused. Where a SMILES comes first, the peptide text is derived from it. Bridges are numbered along the chain shown (N, C = ends). [ ]: non-standard residue; d: D form. The star is where a group is joined. hPhe(3-Cl-4-CF3) = N[C@@H](CCc1ccc(C(F)(F)F)c(Cl)c1)C(=O)O; X18 = CCCCN([C@@H](Cc1ccc(C(F)(F)F)cc1)C(=O)[*:2])[*:1]; NPrPhe(4-CF3) = CCCN[C@@H](Cc1ccc(C(F)(F)F)cc1)C(=O)O; NMeGly(cPent) = CN[C@H](C(=O)O)C1CCCC1; NMeD = CN[C@@H](CC(=O)O)C(=O)O; NMeL = CN[C@@H](CC(C)C)C(=O)O; Morpholide = C1CN(*)CCO1; Ac5c = NC1(C(=O)O)CCCC1; Sar = CNCC(=O)O

Assays:
[1] = target: GDP-bound NRAS wild-type protein (Homo sapiens, UniProt P01111); assay: Binding to NRAS by surface plasmon resonance (SPR), KD and KD ratio to KRAS
How it was run: (§1)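 Compound binding is evaluated by SPR single-cycle kinetics, with concentrations added intermittently from low to high for 75 s each. Target surfaces carry GDP-loaded biotinylated Avi-RAS at about 100–300 RU, regenerated after each cycle; temperature 30°C. A 1:1 binding model gives KD.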

HRAS wild-type protein = HRAS wild-type protein (Homo sapiens, UniProt P01112); assay: Binding to HRAS by surface plasmon resonance (SPR), KD and KD ratio to KRAS
How it was run: as §1

[2] = test system: human lung cancer strain NCI-H441; format: cell-based
How it was run: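 Proliferation was scored by […] measured after the reagent was added to cultures kept at 37°C in 5% carbon dioxide.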

[3] = ratio of KD value for GDP-bound NRAS wild-type protein to KD value for KRAS (SPR)
[4] = ratio of KD value for HRAS wild-type protein to KD value for KRAS (SPR)
[5] = ratio of KD for GDP-bound NRAS wild-type protein to KD for KRAS
[6] = ratio of KD for HRAS wild-type protein to KD for KRAS
[7] = ratio of the KD value with respect to GDP-bound NRAS wild-type protein to the KD value with respect to KRAS
[8] = ratio of the KD value with respect to HRAS wild-type protein to the KD value with respect to KRAS

HRAS wild-type protein, sequence (P01112 whole entry): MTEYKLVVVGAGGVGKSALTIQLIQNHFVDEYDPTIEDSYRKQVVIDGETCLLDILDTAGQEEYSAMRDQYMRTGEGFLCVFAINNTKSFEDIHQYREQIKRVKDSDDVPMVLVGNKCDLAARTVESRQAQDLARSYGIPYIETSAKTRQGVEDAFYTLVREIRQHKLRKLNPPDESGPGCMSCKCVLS
GDP-bound NRAS wild-type protein, sequence (P01111 whole entry): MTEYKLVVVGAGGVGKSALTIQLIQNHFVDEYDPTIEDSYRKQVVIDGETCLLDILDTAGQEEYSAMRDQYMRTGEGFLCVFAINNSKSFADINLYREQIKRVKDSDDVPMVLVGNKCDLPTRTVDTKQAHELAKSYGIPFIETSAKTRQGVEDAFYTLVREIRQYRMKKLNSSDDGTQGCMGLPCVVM

| SMILES | IC50 [2] [nM] | NRAS /KRAS [1, 3] | HRAS /KRAS (HRAS wild-type protein; [4]) | NRAS /KRAS [1, 5] | HRAS /KRAS (HRAS wild-type protein; [6]) | NRAS /KRAS [1, 7] | HRAS /KRAS (HRAS wild-type protein; [8]) |
| --- | --- | --- | --- | --- | --- | --- | --- |
| CCC[C@H]1C(=O)N[C@@H]([C@@H](C)CC)C(=O)N(C)CC(=O)N(C)[C@H]2C/C=C\CCN(C2=O)[C@@H](Cc2ccc(C(F)(F)F)cc2)C(=O)N(C)CC(=O)N[C@@H](CCc2cc(F)c(C(F)(F)F)c(F)c2)C(=O)N2C[C@H](OCC)C[C@H]2C(=O)NC2(CC(C)(C)C2)C(=O)N(C)[C@@H](C2CCCC2)C(=O)N(C)[C@H](C(=O)N(C)C)CC(=O)N1C [PP1645] | 1.8 | A (a compound having 10 or more and less than 20 is denoted as A) | A (a compound having 10 or more and less than 20 is denoted as A) | – | – | – | – |
| CCO[C@@H]1C[C@H]2C(=O)NC3(CCC3)C(=O)N(C)[C@@H](C3CCCC3)C(=O)N(C)[C@H](C(=O)N(C)C)CC(=O)N(C)[C@@H](CC3CCC3)C(=O)N[C@@H]([C@@H](C)CC)C(=O)N(C)CC(=O)N(C)[C@H]3CCCCN(C3=O)[C@@H](Cc3ccc(C(F)(F)F)cc3)C(=O)N(C)CC(=O)N[C@@H](CCc3cc(F)c(C(F)(F)F)c(F)c3)C(=O)N2C1 [PP0698] | 4.1 | – | – | – | – | C (A compound having a KD ratio of 0.1 or more and less than 3 is denoted as C) | C (A compound having a KD ratio of 0.1 or more and less than 3 is denoted as C) |
| CC[C@H](C)[C@@H]1NC(=O)[C@H](C)N(C)C(=O)C[C@@H](C(=O)N2CCOCC2)N(C)C(=O)[C@H](C2CCCC2)N(C)C(=O)C2(CCC2)NC(=O)[C@@H]2CC(F)(F)CN2C(=O)[C@H](CCc2cc(F)c(C(F)(F)F)c(F)c2)NC(=O)CN(C)C(=O)[C@H](Cc2ccc(C(F)(F)F)cc2)N2CCCC[C@@H](C2=O)N(C)C(=O)CN(C)C1=O [PP0582] | 9.6 | – | – | – | – | C (A compound having a KD ratio of 0.1 or more and less than 3 is denoted as C) | B (a compound having 3 or more and less than 10 is denoted as B) |
| CCCCN1C(=O)CN(C)C(=O)CN(C)C(=O)[C@H]([C@@H](C)CC)NC(=O)[C@H](CC(C)C)N(C)C(=O)C[C@@H](C(=O)N2CCOCC2)N(C)C(=O)[C@H](C2CCCC2)N(C)C(=O)C2(CCCC2)NC(=O)[C@@H]2CCCN2C(=O)[C@H](CCc2ccc(C(F)(F)F)c(Cl)c2)NC(=O)CN(C)C(=O)[C@@H]1Cc1ccc(C(F)(F)F)cc1 [PP0120] ([NMeL]I[Sar][Sar][X18][Sar][hPhe(3-Cl-4-CF3)]P[Ac5c][NMeGly(cPent)][NMeD]-Morpholide; lactam N-11) | 5.6 | – | – | B (a compound having 3 or more and less than 10 is denoted as B) | C (A compound having a KD ratio of 0.1 or more and less than 3 is denoted as C) | – | – |
| CCO[C@@H]1C[C@H]2C(=O)NC3(CCC3)C(=O)N(C)[C@@H](C3CCCC3)C(=O)N(C)[C@H](C(=O)N(C)C)CC(=O)N(C)[C@@H](Cc3cccc(F)c3)C(=O)N[C@@H]([C@@H](C)CC)C(=O)N(C)CC(=O)N(C)[C@H]3CCCCCN(C3=O)[C@@H](Cc3ccc(C(F)(F)F)cc3)C(=O)N(C)CC(=O)N[C@@H](CCc3cc(F)c(C(F)(F)F)c(F)c3)C(=O)N2C1 [PP0935] | 26.9 | – | – | B (a compound having 3 or more and less than 10 is denoted as B) | B (a compound having 3 or more and less than 10 is denoted as B) | – | – |
| CC[C@H](C)[C@@H]1NC(=O)[C@H](C)N(C)C(=O)C[C@@H](C(=O)N(C)C)N(C)C(=O)[C@H](C2CCCC2)N(C)C(=O)C2(CCC2)NC(=O)[C@@H]2CCCN2C(=O)[C@H](CCc2cc(F)c(C(F)(F)F)c(F)c2)NC(=O)CN(C)C(=O)[C@H](Cc2ccc(C(F)(F)F)cc2)N2CCCC[C@@H](C2=O)N(C)C(=O)CN(C)C1=O [PP0581] | 8 | – | – | – | – | C (A compound having a KD ratio of 0.1 or more and less than 3 is denoted as C) | B (a compound having 3 or more and less than 10 is denoted as B) |
| CCO[C@@H]1C[C@H]2C(=O)NC3(CCC3)C(=O)N(C)[C@@H](C3CCCC3)C(=O)N(CCC3CCCC3)[C@H](C(=O)N(C)C)CC(=O)N(C)[C@@H](CC)C(=O)N[C@@H]([C@@H](C)CC)C(=O)N(C)CC(=O)N(C)[C@H]3C/C=C\CCN(C3=O)[C@@H](Cc3ccc(C(F)(F)F)cc3)C(=O)N(C)CC(=O)N[C@@H](CCc3cc(F)c(C(F)(F)F)c(F)c3)C(=O)N2C1 [PP0982] | 372 | – | – | AA (a compound having 20 or more is denoted as AA) | A (a compound having 10 or more and less than 20 is denoted as A) | – | – |
| CCCN(C)C(=O)[C@@H]1CC(=O)N(C)[C@@H](COC)C(=O)N[C@@H]([C@@H](C)CC)C(=O)N(C)CC(=O)N(C)[C@H]2C/C=C\CCN(C2=O)[C@@H](Cc2ccc(C(F)(F)F)cc2)C(=O)N(C)CC(=O)N[C@@H](CCc2cc(F)c(C(F)(F)F)c(F)c2)C(=O)N2C[C@H](F)C[C@H]2C(=O)NC2(CC(C)(C)C2)C(=O)N(C)[C@@H](C2CCCC2)C(=O)N1C [PP1696] | 2.9 | AA (a compound having 20 or more is denoted as AA) | A (a compound having 10 or more and less than 20 is denoted as A) | – | – | – | – |
| CCCN1C(=O)CN(C)C(=O)CN(C)C(=O)[C@H]([C@@H](C)CC)NC(=O)[C@H](CC(C)C)N(C)C(=O)C[C@@H](C(=O)N(C)C)N(C)C(=O)[C@H](C2CCCC2)N(C)C(=O)C2(CCCC2)NC(=O)[C@@H]2CCCN2C(=O)[C@H](CCc2ccc(C(F)(F)F)c(Cl)c2)NC(=O)CN(C)C(=O)[C@@H]1Cc1ccc(C(F)(F)F)cc1 [PP0169] ([NMeL]I[Sar][Sar][NPrPhe(4-CF3)][Sar][hPhe(3-Cl-4-CF3)]P[Ac5c][NMeGly(cPent)][NMeD]-NMe2; lactam N-11) | 2.3 | – | – | B (a compound having 3 or more and less than 10 is denoted as B) | B (a compound having 3 or more and less than 10 is denoted as B) | – | – |

More lines, main results first:

| IC50 [2] [nM] | SMILES | NRAS /KRAS [1, 3] | HRAS /KRAS (HRAS wild-type protein; [4]) | NRAS /KRAS [1, 5] | HRAS /KRAS (HRAS wild-type protein; [6]) | NRAS /KRAS [1, 7] | HRAS /KRAS (HRAS wild-type protein; [8]) |
| --- | --- | --- | --- | --- | --- | --- | --- |
| 8.1 | CCC[C@H]1C(=O)N[C@@H]([C@@H](C)CC)C(=O)N(C)CC(=O)N(C)[C@H]2C/C=C\CCN(C2=O)[C@@H](Cc2ccc(C(F)(F)F)cc2)C(=O)N(C)CC(=O)N[C@@H](CCc2ccc(C(F)(F)F)c(Cl)c2)C(=O)N2C[C@H](OCC)C[C@H]2C(=O)NC2(CC(C)(C)C2)C(=O)N(C)[C@@H](CC(C)C)C(=O)N(C)[C@H](C(=O)N(C)C)CC(=O)N1C [PP2977] | – | – | A (a compound having 10 or more and less than 20 is denoted as A) | A (a compound having 10 or more and less than 20 is denoted as A) | – | – |
| 3.6 | CCO[C@@H]1C[C@H]2C(=O)NC3(CC(C)(C)C3)C(=O)N(C)[C@@H](C3CCCC3)C(=O)N(C)[C@H](C(=O)N(C)C)CC(=O)N(C)[C@@H](CC)C(=O)N[C@@H]([C@@H](C)CC)C(=O)N(C)CC(=O)N(C)[C@H]3C/C=C\CCN(C3=O)[C@@H](Cc3ccc(Cl)cc3F)C(=O)N(C)CC(=O)N[C@@H](CCc3cc(F)c(C(F)(F)F)c(F)c3)C(=O)N2C1 [PP2048] | – | – | – | – | A (a compound having 10 or more and less than 20 is denoted as A) | B (a compound having 3 or more and less than 10 is denoted as B) |
| 5.4 | CCO[C@@H]1C[C@H]2C(=O)N(C)C3(CCC3)C(=O)N(C)[C@@H](C3CCCC3)C(=O)N(C)[C@H](C(=O)N(C)C)CC(=O)N(C)[C@@H](CC)C(=O)N[C@@H]([C@@H](C)CC)C(=O)N(C)CC(=O)N(C)[C@H]3C/C=C\CCN(C3=O)[C@@H](Cc3ccc(C(F)(F)F)cc3)C(=O)N(C)CC(=O)N[C@@H](CCc3cc(F)c(C(F)(F)F)c(F)c3)C(=O)N2C1 [PP1779] | A (a compound having 10 or more and less than 20 is denoted as A) | B (a compound having 3 or more and less than 10 is denoted as B) | – | – | – | – |
| 17.8 | CCCOC[C@H]1C(=O)N[C@@H]([C@@H](C)CC)C(=O)N(C)CC(=O)N(C)[C@H]2C/C=C\CCN(C2=O)[C@@H](Cc2ccc(C(F)(F)F)cc2)C(=O)N(C)CC(=O)N[C@@H](CCc2ccc(C(F)(F)F)c(OC)c2)C(=O)N2C[C@@H](C)C[C@H]2C(=O)NC2(CC(C)(C)C2)C(=O)N(C)[C@@H](C2CCCC2)C(=O)N(C)[C@H](C(=O)N(C)CC)CC(=O)N1C [PP1995] | – | – | – | – | A (a compound having 10 or more and less than 20 is denoted as A) | B (a compound having 3 or more and less than 10 is denoted as B) |
| 3.8 | CCC[C@H]1C(=O)N[C@@H]([C@@H](C)CC)C(=O)N2CCC[C@H]2C(=O)N(C)[C@H]2C/C=C\CCN(C2=O)[C@@H](Cc2ccc(C)cc2)C(=O)N(C)CC(=O)N[C@@H](CCc2ccc(C(F)(F)F)c(OC)c2)C(=O)N2C[C@H](OCC)C[C@H]2C(=O)N(C)C2(CCC2)C(=O)N(C)[C@@H](C2CCCC2)C(=O)N(C)[C@H](C(=O)N(C)C)CC(=O)N1C [PP2332] | – | – | – | – | A (a compound having 10 or more and less than 20 is denoted as A) | B (a compound having 3 or more and less than 10 is denoted as B) |
| 14.1 | CCCOC[C@H]1C(=O)N[C@@H]([C@@H](C)CC)C(=O)N(C)CC(=O)N(C)[C@H]2C/C=C\CCN(C2=O)[C@@H](Cc2ccc(C(F)(F)F)cc2)C(=O)N(C)CC(=O)N[C@@H](CCc2ccc(C(F)(F)F)c(Cl)c2)C(=O)N2C[C@H](OCC)C[C@H]2C(=O)NC2(CCC2)C(=O)N(C)[C@@H](C2CCCC2)C(=O)N(C)[C@H](C(=O)N(C)CCC)CC(=O)N1C [PP2831] | – | – | A (a compound having 10 or more and less than 20 is denoted as A) | A (a compound having 10 or more and less than 20 is denoted as A) | – | – |
